Laboratory results taken from patent publication US11034725B2, “Compositions and methods for treating cardiovascular disease” (Genentech, Inc., priority 2016, dated 2021).
Several values for one entry are separate records, joined by “and”; a condition that tells them apart may be missing. Equal values may be shown once. Read-outs that look alike come from different tables or passages of the source. Bridge positions count the residues as written; N and C are the ends. Square brackets hold non-standard residues; d marks the D form. Peptide text beside a SMILES is read from it. * marks the point of attachment. hArg = N=C(N)NCCCC[C@H](N)C(=O)O; Pentanoyl = CCCCC(=O)*

Columns and labels:
[1] = target: PCSK9 (Homo sapiens, UniProt Q8NBP7); experiment: PCSK9/EGF(A) TR-FRET binding assay
[2] = target: T1, PCSK9Δhelix (Homo sapiens, UniProt Q8NBP7); experiment: PCSK9Δhelix/Ab20 TR-FRET binding assay
T1 construct: Human PCSK9 construct M1-Q692 with an engineered TEV site (residue deletion Y166, R167); made in house; host or cells: CHO

[3] = system: His-EGF(A)-Fc; experiment: His-EGF(A)-Fc TR-FRET counterscreen
[4] = TR-FRET, Example 7, read-out: PCSK9/EGF(A) IC50
[5] = TR-FRET, Example 7, read-out: PCSK9Δhelix/Ab20 IC50
[6] = TR-FRET, Table 8D, disulfide-cyclized extension peptides, read-out: PCSK9/EGF(A) IC50
[7] = TR-FRET counterscreen, Table 8D, * = some inhibition at highest concentrations, not sufficient to fit an IC50
[8] = TR-FRET, Table 8E, additional compounds, read-out: PCSK9/EGF(A) IC50
[9] = TR-FRET counterscreen, Table 8E, additional compounds

T1 sequence (Q8NBP7 with tags, fused parts or gaps limits assumed): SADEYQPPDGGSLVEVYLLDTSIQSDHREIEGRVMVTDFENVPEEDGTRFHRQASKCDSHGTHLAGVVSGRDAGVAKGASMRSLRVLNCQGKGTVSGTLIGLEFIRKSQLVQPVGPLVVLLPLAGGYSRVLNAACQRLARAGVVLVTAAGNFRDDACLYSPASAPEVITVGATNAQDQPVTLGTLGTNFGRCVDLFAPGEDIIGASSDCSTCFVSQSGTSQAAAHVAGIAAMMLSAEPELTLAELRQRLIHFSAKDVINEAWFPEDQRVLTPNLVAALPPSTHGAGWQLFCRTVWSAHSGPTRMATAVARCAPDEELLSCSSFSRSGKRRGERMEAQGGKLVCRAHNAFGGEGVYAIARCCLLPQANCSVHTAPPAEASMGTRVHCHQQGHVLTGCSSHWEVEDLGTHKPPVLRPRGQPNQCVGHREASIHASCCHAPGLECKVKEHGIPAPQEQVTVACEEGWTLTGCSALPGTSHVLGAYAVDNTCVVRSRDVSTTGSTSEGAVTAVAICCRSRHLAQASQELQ
T1 sequence (Q8NBP7 31-152 partner limits assumed): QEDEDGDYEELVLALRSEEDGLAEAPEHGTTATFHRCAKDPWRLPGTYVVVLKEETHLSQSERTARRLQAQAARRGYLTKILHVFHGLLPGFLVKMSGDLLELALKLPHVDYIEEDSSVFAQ
Sequence of PCSK9 (Q8NBP7 153-692): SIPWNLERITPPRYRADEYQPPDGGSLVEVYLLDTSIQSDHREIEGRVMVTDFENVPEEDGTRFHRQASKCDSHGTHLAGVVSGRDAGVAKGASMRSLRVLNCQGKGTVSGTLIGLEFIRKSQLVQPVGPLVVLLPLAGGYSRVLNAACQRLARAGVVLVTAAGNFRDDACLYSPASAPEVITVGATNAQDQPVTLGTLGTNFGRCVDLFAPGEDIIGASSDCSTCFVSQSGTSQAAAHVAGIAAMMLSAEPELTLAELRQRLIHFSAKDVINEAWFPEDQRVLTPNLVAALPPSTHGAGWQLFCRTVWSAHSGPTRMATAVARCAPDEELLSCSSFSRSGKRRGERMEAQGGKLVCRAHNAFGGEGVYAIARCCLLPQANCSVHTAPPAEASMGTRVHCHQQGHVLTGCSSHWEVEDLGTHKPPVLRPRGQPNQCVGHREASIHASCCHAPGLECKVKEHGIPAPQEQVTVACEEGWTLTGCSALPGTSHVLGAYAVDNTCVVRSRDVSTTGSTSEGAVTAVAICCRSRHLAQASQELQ
Sequence of PCSK9 (Q8NBP7 31-152 partner limits assumed): as the sequence (Q8NBP7 31-152 partner limits assumed) above

Compound	IC50 [2, 5]	IC50 ([3]; counterscreen, Example 7)	IC50 [1, 8]	IC50 [3, 9]	further results
CC(=O)N[C@H](C(=O)N[C@H](C(=O)N[C@@H](Cc1ccccc1)C(=O)N[C@H](C(=O)N[C@@H](CO)C(=O)N[C@@H](Cc1c[nH]c2ccccc12)C(=O)N[C@@H](CCC(=O)O)C(=O)N[C@@H](CCC(=O)O)C(=O)N[C@@H](Cc1ccc(O)cc1)C(=O)N[C@@H](CC(C)C)C(=O)N[C@@H](CC(=O)O)C(=O)N[C@@H](Cc1c[nH]c2ccccc12)C(=O)N[C@H](C(=O)NCCCCCCCC(=O)N[C@@H](CCCCN)C(=O)N[C@@H](CC(C)C)C(=O)N[C@@H](Cc1c[nH]c2ccccc12)C(=O)N[C@@H](CC(N)=O)C(=O)N[C@@H](CC(C)C)C(=O)NCC(=O)N[C@@H](CCCNC(=N)N)C(=O)N[C@H](C(N)=O)C(C)C)C(C)C)[C@@H](C)O)C(C)C)[C@@H](C)O [Compound 10]	0.63 µM	> 50 µM			IC50 [1, 4]: 0.63 µM
CC[C@H](C)[C@@H]1NC(=O)[C@H](CCCNC(=N)N)NC(=O)CNC(=O)[C@H](CC(C)C)NC(=O)[C@H](CC(N)=O)NC(=O)[C@H](Cc2c[nH]c3ccccc23)NC(=O)[C@@H](NC(=O)CNC(=O)[C@H](CO)NC(=O)CNC(=O)[C@@H](NC(=O)[C@H](Cc2c[nH]c3ccccc23)NC(=O)[C@H](CC(=O)O)NC(=O)[C@H](CC(C)C)NC(=O)[C@H](Cc2ccc(O)cc2)NC(=O)[C@H](CCC(=O)O)NC(=O)[C@H](CCC(=O)O)NC(=O)[C@H](Cc2c[nH]c3ccccc23)NC(=O)[C@H](CO)NC(=O)[C@@H](NC(=O)[C@H](Cc2ccccc2)NC(=O)[C@@H](NC(=O)[C@@H](NC(C)=O)[C@@H](C)O)C(C)C)[C@@H](C)O)C(C)C)CSSC[C@@H](C(N)=O)NC(=O)CNC(=O)[C@H](CCC(N)=O)NC(=O)[C@H](CO)NC(=O)CNC1=O [Compound 11] (Ac-TVFTSWEEYLDWVGSGCWNLGRIGSQGC-NH2; disulfide 17-28)		> 50 µM			IC50 [1, 4]: 0.34 µM
CC[C@H](C)[C@@H]1NC(=O)[C@H](CCCNC(=N)N)NC(=O)[C@H](CCCCN)NC(=O)[C@H](CC(C)C)NC(=O)[C@H](CC(N)=O)NC(=O)[C@H](Cc2c[nH]c3ccccc23)NC(=O)[C@@H](NC(=O)CNC(=O)[C@H](CO)NC(=O)CNC(=O)CNC(=O)[C@@H](NC(=O)[C@H](Cc2c[nH]c3ccccc23)NC(=O)[C@H](CC(=O)O)NC(=O)[C@H](CC(C)C)NC(=O)[C@H](Cc2ccc(O)cc2)NC(=O)[C@H](CCC(=O)O)NC(=O)[C@H](CCC(=O)O)NC(=O)[C@H](Cc2c[nH]c3ccccc23)NC(=O)[C@H](CO)NC(=O)[C@@H](NC(=O)[C@H](Cc2ccccc2)NC(=O)[C@@H](NC(=O)[C@@H](NC(C)=O)[C@@H](C)O)C(C)C)[C@@H](C)O)C(C)C)CSSC[C@@H](C(N)=O)NC(=O)CNC(=O)[C@H](CCC(N)=O)NC(=O)[C@H](CO)NC(=O)CNC1=O [Compound 13] (Ac-TVFTSWEEYLDWVGGSGCWNLKRIGSQGC-NH2; disulfide 18-29)	0.001 µM	> 50 µM			inhibition in the PCSK9/EGF(A) binding assay [1]: potent inhibitors; IC50 [1, 4]: 0.01 µM; inhibition in the PCSK9Δhelix/Ab20 binding assay [2]: potent inhibitors
CC[C@H](C)[C@@H]1NC(=O)[C@H](CCCNC(=N)N)NC(=O)[C@H](CCCCN)NC(=O)[C@H](CC(C)C)NC(=O)[C@H](CC(N)=O)NC(=O)[C@H](Cc2c[nH]c3ccccc23)NC(=O)[C@@H](NC(=O)CNC(=O)CNC(=O)[C@H](CO)NC(=O)CNC(=O)[C@@H](NC(=O)[C@H](Cc2c[nH]c3ccccc23)NC(=O)[C@H](CC(=O)O)NC(=O)[C@H](CC(C)C)NC(=O)[C@H](Cc2ccc(O)cc2)NC(=O)[C@H](CCC(=O)O)NC(=O)[C@H](CCC(=O)O)NC(=O)[C@H](Cc2c[nH]c3ccccc23)NC(=O)[C@H](CO)NC(=O)[C@@H](NC(=O)[C@H](Cc2ccccc2)NC(=O)[C@@H](NC(=O)[C@@H](NC(C)=O)[C@@H](C)O)C(C)C)[C@@H](C)O)C(C)C)CSSC[C@@H](C(N)=O)NC(=O)CNC(=O)[C@H](CCC(N)=O)NC(=O)[C@H](CO)NC(=O)CNC1=O [Compound 14] (Ac-TVFTSWEEYLDWVGSGGCWNLKRIGSQGC-NH2; disulfide 18-29)	0.001 µM	> 50 µM			inhibition in the PCSK9/EGF(A) binding assay [1]: potent inhibitors; IC50 [1, 4]: 0.009 µM; inhibition in the PCSK9Δhelix/Ab20 binding assay [2]: potent inhibitors
CC[C@H](C)[C@@H]1NC(=O)[C@H](CCCNC(=N)N)NC(=O)[C@H](CCCCN)NC(=O)[C@H](CC(C)C)NC(=O)[C@H](CC(N)=O)NC(=O)[C@H](Cc2c[nH]c3ccccc23)NC(=O)[C@@H](NC(=O)CCCCCCCNC(=O)[C@@H](NC(=O)[C@H](Cc2c[nH]c3ccccc23)NC(=O)[C@H](CC(=O)O)NC(=O)[C@H](CC(C)C)NC(=O)[C@H](Cc2ccc(O)cc2)NC(=O)[C@H](CCC(=O)O)NC(=O)[C@H](CCC(=O)O)NC(=O)[C@H](Cc2c[nH]c3ccccc23)NC(=O)[C@H](CO)NC(=O)[C@@H](NC(=O)[C@H](Cc2ccccc2)NC(=O)[C@@H](NC(=O)[C@@H](NC(C)=O)[C@@H](C)O)C(C)C)[C@@H](C)O)C(C)C)CSSC[C@@H](C(N)=O)NC(=O)CNC(=O)[C@H](CCC(N)=O)NC(=O)[C@H](CO)NC(=O)CNC1=O [Compound 15]	0.002 µM	> 50 µM			inhibition in the PCSK9/EGF(A) binding assay [1]: maintained potency; inhibition in the PCSK9Δhelix/Ab20 binding assay [2]: maintained potency
CC[C@H](C)[C@@H]1NC(=O)[C@H](CCCNC(=N)N)NC(=O)[C@H](CCCCN)NC(=O)[C@H](CC(C)C)NC(=O)[C@H](CC(N)=O)NC(=O)[C@H](Cc2c[nH]c3ccccc23)NC(=O)[C@@H](NC(C)=O)CSSC[C@@H](C(N)=O)NC(=O)CNC(=O)[C@H](CCC(N)=O)NC(=O)[C@H](CO)NC(=O)CNC1=O [Compound 21] (Ac-CWNLKRIGSQGC-NH2; disulfide 1-12)					IC50 [1, 6]: > 50 µM; IC50 ([2]; TR-FRET, Table 8D, disulfide-cyclized extension peptides, read-out: PCSK9Δhelix/Ab20 IC50): > 50 µM; IC50 [3, 7]: > 50 µM
CC[C@H](C)[C@@H]1NC(=O)[C@H](CCCNC(=N)N)NC(=O)[C@H](CCCCN)NC(=O)[C@H](CC(C)C)NC(=O)[C@H](CC(N)=O)NC(=O)[C@H](Cc2c[nH]c3ccccc23)NC(=O)[C@@H](NC(=O)CNC(=O)[C@H](CO)NC(=O)CNC(C)=O)CSSC[C@@H](C(N)=O)NC(=O)CNC(=O)[C@H](CCC(N)=O)NC(=O)[C@H](CO)NC(=O)CNC1=O [Compound 22] (Ac-GSGCWNLKRIGSQGC-NH2; disulfide 4-15 (inferred))					IC50 ([1]; PCSK9/EGF(A) IC50, TR-FRET, Table 8D, disulfide-cyclized extension peptides): > 50 µM; IC50 ([2]; PCSK9Δhelix/Ab20 IC50, TR-FRET, Table 8D, disulfide-cyclized extension peptides): 14 µM and > 50 µM; IC50 [3, 7]: > 50 µM
CC[C@H](C)[C@@H]1NC(=O)[C@H](CCCNC(=N)N)NC(=O)[C@H](CCCCN)NC(=O)[C@H](CC(C)C)NC(=O)[C@H](CC(N)=O)NC(=O)[C@H](Cc2c[nH]c3ccccc23)NC(=O)[C@@H](NC(=O)CCCCCCNC(=O)[C@@H](NC(=O)[C@H](Cc2c[nH]c3ccccc23)NC(=O)[C@H](CC(=O)O)NC(=O)[C@H](CC(C)C)NC(=O)[C@H](Cc2ccc(O)cc2)NC(=O)[C@H](CCC(=O)O)NC(=O)[C@H](CCC(=O)O)NC(=O)[C@H](Cc2c[nH]c3ccccc23)NC(=O)[C@H](CO)NC(=O)[C@@H](NC(=O)[C@H](Cc2ccccc2)NC(=O)[C@@H](NC(=O)[C@@H](NC(C)=O)[C@@H](C)O)C(C)C)[C@@H](C)O)C(C)C)CSSC[C@@H](C(N)=O)NC(=O)CNC(=O)[C@H](CCC(N)=O)NC(=O)[C@H](CO)NC(=O)CNC1=O [Compound 24]	0.001 µM	> 50 µM			inhibition in the PCSK9/EGF(A) binding assay [1]: maintained potency; inhibition in the PCSK9Δhelix/Ab20 binding assay [2]: maintained potency
CC[C@H](C)[C@@H]1NC(=O)[C@H](CCCNC(=N)N)NC(=O)[C@H](CCC(N)=O)NC(=O)[C@H](CC(C)C)NC(=O)[C@H](CC(N)=O)NC(=O)[C@H](Cc2c[nH]c3ccccc23)NC(=O)[C@@H]2CCCN2C(=O)[C@H](CC(C)C)NC(=O)[C@H](CCCNC(=N)N)NC(=O)[C@@H](NC(C)=O)CSSC[C@@H](C(N)=O)NC(=O)CNC(=O)[C@H](CC(C)C)NC(=O)CNC1=O [Compound 80] (Ac-CRLPWNLQRIGLGC-NH2; disulfide 1-14)					IC50 [1, 6]: > 50 µM; IC50 [3, 7]: > 50 µM
CC[C@H](C)[C@@H]1NC(=O)[C@H](CCCNC(=N)N)NC(=O)[C@H](CCC(N)=O)NC(=O)[C@H](CC(C)C)NC(=O)[C@H](CC(N)=O)NC(=O)[C@H](Cc2c[nH]c3ccccc23)NC(=O)[C@@H]2CCCN2C(=O)[C@H](CC(C)C)NC(=O)[C@H](CCCNC(=N)N)NC(=O)[C@H](NC(C)=O)CSSC[C@@H](C(N)=O)NC(=O)[C@@H]2CCCN2C(=O)[C@H](CC(C)C)NC(=O)CNC1=O [Compound 110] (Ac-[dC]RLPWNLQRIGLPC-NH2; disulfide 1-14)					IC50 [1, 6]: > 50 µM; IC50 [3, 7]: > 50 µM
CCCCC(=O)N[C@@H](Cc1c[nH]c2ccccc12)C(=O)N[C@@H](CC(N)=O)C(=O)N[C@@H](CC(C)C)C(=O)N[C@H](C(=O)N[C@@H](CCCNC(=N)N)C(=O)N[C@H](C(=O)NCC(=O)N[C@@H](CC(C)C)C(=O)N[C@@H](CCC(=O)O)C(=O)N[C@@H](CCCNC(=N)N)C(N)=O)[C@@H](C)CC)C(C)C [Compound 177] (Pentanoyl-WNLVRIGLER-NH2)			≥ 50 µM	≥ 50 µM	
CC[C@H](C)[C@H](NC(=O)[C@H](CCCCNC(=N)N)NC(=O)[C@H](CCCCN)NC(=O)[C@H](CC(C)C)NC(=O)[C@H](CC(N)=O)NC(=O)[C@H](Cc1c[nH]c2ccccc12)NC(=O)CNC(=O)[C@@H]1CCCN1C(=O)[C@H](Cc1ccccc1)NC(=O)[C@H](CO)NC(=O)[C@H](CCC(=O)O)NC(=O)[C@H](CCSC)NC(C)=O)C(=O)NCC(=O)N[C@@H](CC(C)C)C(=O)N[C@@H](CC(C)C)C(=O)N[C@@H](CCCNC(=N)N)C(N)=O [Compound 233] (Ac-MESFPGWNLK[hArg]IGLLR-NH2)			3.1 µM	≥ 50 µM	
Ac-DSYPGWNLVRIGLLR-NH2 [Compound 155]			11 µM	> 50 µM	
Ac-ESYPGWNLVRIGLLR-NH2 [Compound 156]			11 µM	> 50 µM	
Ac-MDSFPGWNLVRIGLLR-NH2 [Compound 153]			12 µM	> 50 µM	
Ac-SFAFPGWNLVRIGLLR-NH2 [Compound 154]			11 µM	> 50 µM	
